Columns and labels:
[1] = target: T1, Nitric oxide synthase, inducible (Mus musculus, UniProt P29477)
T1 sequence (P29477 whole entry): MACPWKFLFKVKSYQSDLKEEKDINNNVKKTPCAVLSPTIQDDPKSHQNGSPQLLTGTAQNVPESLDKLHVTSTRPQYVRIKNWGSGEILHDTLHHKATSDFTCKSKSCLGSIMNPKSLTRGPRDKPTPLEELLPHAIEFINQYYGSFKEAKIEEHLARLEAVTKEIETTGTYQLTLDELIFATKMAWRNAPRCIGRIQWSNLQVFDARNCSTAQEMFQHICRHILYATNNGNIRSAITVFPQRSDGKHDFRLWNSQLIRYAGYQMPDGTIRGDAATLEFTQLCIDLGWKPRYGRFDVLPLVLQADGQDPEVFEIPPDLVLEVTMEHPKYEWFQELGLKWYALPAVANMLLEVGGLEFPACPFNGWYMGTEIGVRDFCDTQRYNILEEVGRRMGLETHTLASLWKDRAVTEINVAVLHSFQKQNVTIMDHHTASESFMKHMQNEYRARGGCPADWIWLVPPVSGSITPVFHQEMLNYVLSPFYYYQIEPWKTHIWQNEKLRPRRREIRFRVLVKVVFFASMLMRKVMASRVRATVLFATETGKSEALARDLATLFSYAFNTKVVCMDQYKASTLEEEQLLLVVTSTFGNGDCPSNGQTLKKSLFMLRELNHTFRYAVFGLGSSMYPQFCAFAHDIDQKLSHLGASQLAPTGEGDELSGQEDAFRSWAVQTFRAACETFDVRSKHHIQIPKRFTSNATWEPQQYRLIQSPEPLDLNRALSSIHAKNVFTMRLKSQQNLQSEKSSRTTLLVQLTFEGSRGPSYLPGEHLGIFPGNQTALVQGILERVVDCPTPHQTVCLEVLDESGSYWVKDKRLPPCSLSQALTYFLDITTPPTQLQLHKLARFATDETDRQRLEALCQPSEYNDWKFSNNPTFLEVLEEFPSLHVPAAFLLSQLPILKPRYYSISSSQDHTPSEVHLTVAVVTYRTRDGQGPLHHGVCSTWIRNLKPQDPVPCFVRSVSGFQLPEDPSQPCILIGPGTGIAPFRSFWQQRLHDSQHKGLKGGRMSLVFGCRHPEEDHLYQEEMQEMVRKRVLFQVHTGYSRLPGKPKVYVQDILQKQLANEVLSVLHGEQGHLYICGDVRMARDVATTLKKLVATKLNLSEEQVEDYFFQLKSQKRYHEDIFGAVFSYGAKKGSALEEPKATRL

Nitric oxide synthase 1 [2] = target: Nitric oxide synthase 1 (Rattus norvegicus, UniProt P29476); experiment: Inhibition of wild type recombinant rat nNOS expressed in Escherichia coli assessed as nitric oxide production by hemoglobin capture assay
[3] = Selectivity ratio of Ki for wild type recombinant rat nNOS to Ki for bovine eNOS
Nitric oxide synthase 3 = target: T2, Nitric oxide synthase 3 (Bos taurus, UniProt P29473); experiment: Inhibition of recombinant bovine eNOS expressed in Escherichia coli assessed as nitric oxide production by hemoglobin capture assay
T2 sequence (P29473 whole entry): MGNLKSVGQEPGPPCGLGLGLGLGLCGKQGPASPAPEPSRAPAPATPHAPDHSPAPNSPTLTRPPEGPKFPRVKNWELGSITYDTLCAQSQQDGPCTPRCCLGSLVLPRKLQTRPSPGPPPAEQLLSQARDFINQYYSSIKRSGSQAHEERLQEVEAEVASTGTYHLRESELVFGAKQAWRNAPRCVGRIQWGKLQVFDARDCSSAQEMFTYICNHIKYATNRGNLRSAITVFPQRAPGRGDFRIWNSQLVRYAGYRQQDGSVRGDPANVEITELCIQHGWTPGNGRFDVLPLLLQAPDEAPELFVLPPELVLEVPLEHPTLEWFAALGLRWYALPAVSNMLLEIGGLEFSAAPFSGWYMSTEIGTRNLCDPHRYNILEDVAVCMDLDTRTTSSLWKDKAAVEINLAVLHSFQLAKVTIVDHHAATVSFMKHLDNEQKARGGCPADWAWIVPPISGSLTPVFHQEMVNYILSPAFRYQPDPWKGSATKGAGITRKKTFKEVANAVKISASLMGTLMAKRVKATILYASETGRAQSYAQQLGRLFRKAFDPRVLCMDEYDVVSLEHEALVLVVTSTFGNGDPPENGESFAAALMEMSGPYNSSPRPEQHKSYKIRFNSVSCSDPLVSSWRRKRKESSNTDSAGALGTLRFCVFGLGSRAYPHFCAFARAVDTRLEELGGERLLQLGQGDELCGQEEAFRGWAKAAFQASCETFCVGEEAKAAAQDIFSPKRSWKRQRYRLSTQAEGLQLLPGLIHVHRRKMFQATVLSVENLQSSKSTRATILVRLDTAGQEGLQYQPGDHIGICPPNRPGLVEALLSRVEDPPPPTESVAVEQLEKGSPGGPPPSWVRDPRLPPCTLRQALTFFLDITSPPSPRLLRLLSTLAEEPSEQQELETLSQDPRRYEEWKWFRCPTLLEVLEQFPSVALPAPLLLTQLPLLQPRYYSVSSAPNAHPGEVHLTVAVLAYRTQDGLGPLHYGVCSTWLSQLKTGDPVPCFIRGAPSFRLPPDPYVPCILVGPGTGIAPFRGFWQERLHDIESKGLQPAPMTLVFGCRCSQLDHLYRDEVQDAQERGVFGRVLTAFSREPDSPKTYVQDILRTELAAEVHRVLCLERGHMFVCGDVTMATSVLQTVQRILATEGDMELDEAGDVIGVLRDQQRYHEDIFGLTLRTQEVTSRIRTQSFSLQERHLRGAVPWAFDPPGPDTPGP

[4] = Selectivity ratio of Ki for wild type recombinant rat nNOS to Ki for human nNOS
Nitric oxide synthase 1 [5] = target: Nitric oxide synthase 1 (Homo sapiens, UniProt P29475)
Nitric oxide synthase 1 (Homo sapiens, UniProt P29475), sequence (P29475 whole entry): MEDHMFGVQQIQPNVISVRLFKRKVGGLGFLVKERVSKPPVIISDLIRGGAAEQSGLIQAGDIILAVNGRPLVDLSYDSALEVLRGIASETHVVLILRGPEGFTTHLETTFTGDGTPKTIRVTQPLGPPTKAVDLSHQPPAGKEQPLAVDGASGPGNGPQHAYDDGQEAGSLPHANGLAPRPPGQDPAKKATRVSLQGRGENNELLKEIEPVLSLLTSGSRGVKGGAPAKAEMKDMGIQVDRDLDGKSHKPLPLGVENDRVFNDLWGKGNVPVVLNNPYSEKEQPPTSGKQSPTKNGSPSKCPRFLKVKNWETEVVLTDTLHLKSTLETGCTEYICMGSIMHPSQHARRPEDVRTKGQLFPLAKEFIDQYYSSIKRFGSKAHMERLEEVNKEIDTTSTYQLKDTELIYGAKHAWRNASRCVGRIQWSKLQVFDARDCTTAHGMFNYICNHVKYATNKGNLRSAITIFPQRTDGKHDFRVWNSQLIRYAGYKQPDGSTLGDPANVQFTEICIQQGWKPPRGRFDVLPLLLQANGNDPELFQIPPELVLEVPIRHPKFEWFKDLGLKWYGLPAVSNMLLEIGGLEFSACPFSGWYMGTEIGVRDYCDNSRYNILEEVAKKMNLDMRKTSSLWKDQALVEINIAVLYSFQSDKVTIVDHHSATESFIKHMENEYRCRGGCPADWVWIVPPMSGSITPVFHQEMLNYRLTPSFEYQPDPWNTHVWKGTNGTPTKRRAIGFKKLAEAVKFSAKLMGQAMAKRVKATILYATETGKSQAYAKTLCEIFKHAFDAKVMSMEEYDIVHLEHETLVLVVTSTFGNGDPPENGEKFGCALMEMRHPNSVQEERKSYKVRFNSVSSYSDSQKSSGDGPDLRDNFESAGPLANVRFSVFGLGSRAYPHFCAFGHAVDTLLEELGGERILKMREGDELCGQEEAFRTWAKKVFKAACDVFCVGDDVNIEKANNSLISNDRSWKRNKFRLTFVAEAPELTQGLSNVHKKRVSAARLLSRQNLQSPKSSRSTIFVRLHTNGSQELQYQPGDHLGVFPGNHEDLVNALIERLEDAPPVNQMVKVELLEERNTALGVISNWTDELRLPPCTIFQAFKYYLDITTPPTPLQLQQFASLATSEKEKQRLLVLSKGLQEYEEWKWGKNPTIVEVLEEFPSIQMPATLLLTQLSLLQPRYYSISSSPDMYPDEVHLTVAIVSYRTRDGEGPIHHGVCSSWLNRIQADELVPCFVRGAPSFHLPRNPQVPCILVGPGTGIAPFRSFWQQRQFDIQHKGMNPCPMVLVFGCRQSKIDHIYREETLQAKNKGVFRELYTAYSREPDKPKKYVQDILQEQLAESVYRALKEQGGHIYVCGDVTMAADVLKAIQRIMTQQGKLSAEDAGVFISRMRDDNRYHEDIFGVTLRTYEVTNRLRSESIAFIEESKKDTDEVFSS

Nitric oxide synthase 1 (Rattus norvegicus, UniProt P29476), sequence (P29476 whole entry): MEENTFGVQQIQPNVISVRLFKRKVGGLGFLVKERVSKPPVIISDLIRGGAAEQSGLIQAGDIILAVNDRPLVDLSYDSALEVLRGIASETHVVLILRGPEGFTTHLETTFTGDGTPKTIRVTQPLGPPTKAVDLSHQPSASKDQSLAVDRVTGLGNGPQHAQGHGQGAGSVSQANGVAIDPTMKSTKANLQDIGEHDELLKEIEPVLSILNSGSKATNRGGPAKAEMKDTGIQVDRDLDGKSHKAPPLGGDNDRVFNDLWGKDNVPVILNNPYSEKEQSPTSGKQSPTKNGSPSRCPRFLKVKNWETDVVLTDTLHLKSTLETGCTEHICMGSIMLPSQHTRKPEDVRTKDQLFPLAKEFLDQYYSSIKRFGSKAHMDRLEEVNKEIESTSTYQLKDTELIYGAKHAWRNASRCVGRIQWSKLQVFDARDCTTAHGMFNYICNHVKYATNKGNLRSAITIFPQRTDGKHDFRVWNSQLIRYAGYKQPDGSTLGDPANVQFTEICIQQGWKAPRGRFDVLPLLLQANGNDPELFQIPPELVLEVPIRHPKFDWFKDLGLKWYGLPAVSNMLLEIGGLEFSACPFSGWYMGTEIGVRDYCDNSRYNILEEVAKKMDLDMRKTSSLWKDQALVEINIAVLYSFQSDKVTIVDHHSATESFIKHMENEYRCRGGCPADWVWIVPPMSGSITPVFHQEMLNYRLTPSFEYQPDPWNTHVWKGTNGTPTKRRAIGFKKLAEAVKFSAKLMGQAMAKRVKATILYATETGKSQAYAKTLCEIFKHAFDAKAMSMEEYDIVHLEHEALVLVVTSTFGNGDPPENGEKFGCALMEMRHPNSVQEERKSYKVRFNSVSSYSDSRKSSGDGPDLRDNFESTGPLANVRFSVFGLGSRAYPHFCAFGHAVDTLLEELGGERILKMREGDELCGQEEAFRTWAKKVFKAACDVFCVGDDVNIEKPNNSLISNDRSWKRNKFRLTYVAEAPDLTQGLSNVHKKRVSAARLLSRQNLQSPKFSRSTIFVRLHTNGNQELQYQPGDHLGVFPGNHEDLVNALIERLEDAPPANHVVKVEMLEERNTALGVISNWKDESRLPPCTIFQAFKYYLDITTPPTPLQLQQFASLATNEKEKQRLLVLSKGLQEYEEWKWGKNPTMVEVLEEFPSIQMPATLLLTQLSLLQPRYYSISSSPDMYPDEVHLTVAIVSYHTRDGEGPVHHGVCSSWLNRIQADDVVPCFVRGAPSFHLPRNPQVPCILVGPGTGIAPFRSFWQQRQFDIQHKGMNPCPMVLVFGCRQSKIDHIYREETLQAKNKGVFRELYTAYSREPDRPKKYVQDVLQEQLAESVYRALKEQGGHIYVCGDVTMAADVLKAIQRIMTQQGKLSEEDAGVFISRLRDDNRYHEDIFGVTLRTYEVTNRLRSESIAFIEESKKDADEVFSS

| Ki [1] [µM] | Ki (Nitric oxide synthase 1 [2]) [nM] | Ratio Ki [3] | Ki (Nitric oxide synthase 3) [µM] | Ratio Ki [4] | Ki (Nitric oxide synthase 1 [5]) [nM] | SMILES |
| --- | --- | --- | --- | --- | --- | --- |
| 48.7 | 332 | – | – | – | – | CNCc1ccc(OCc2ccc3ccc(N)nc3c2)cc1 |
| 178 | – | 44 | 31 | – | – | CN(C)CCOc1cccc(OCc2ccc3ccc(N)nc3c2)c1 |
| – | 652 | – | – | – | – | CN(C)CCCc1cccc(OCc2ccc3ccc(N)nc3c2)c1 |
| 11.4 | – | – | – | – | – | CNCc1cc(OCc2ccc3ccc(N)nc3c2)ccc1F |
| – | > 5750 | – | – | – | – | CN(C)c1cccc(OCc2ccc3ccc(N)nc3c2)c1 |

The remaining lines, values behind:

| SMILES | Ki [1] [µM] | Ki (Nitric oxide synthase 1 [2]) [nM] | Ratio Ki [3] | Ki (Nitric oxide synthase 3) [µM] | Ratio Ki [4] | Ki (Nitric oxide synthase 1 [5]) [nM] |
| --- | --- | --- | --- | --- | --- | --- |
| CN(C)CCc1cccc(OCc2ccc3ccc(N)nc3c2)c1 | 150 | 468 | – | 17.7 | – | – |
| CNCc1cncc(OCc2ccc3ccc(N)nc3c2)c1 | 13.5 | 43 | 77 | 3.31 | 11.8 | 507 |
| CNCc1cccc(NCc2ccc3ccc(N)nc3c2)c1 | – | 569 | – | – | – | – |
| CNC(C)c1cccc(OCc2ccc3ccc(N)nc3c2)c1 (racemic) | 67.1 | 360 | – | – | – | – |
| Nc1ccc2ccc(COc3cccnc3)cc2n1 | – | 712 | – | – | – | – |
